# Measurements published in PubChem BioAssay (NCI).
#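 96-well plates; 48 h exposure; 5 concentrations. Endpoints by linear interpolation between flanking doses. Not reached: highest tested concentration assigned. GI50: concentration for 50% inhibition of growth. At the TGI there is no net growth.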 Where a SMILES comes first, the peptide text is derived from it. [ ]: non-standard residue; d: D form. pGlu = O=C1CC[CH](C(=O)O)N1; Thz = O=C(O)[CH]1CSCN1
# Legend:
# Experiment in all cases: DTP human tumour cell line panel, 48 h
# [1] = tested on: A549 NSCLC
# [2] = tested on: A498 renal
# [3] = tested on: MOLT-4 leukemia
# [4] = tested on: SF-295 CNS
# [5] = tested on: HS 578T breast
# [6] = tested on: SW-620 colon
# [7] = tested on: M14 melanoma
# [8] = tested on: BT-549 breast
# [9] = tested on: ACHN renal
# [10] = tested on: U251 CNS
# [11] = tested on: HOP-92 NSCLC
# [12] = tested on: SNB-75 CNS
# [13] = tested on: HOP-62 NSCLC
Compound,TGI [1] [µM],TGI [2] [µM],TGI [3] [µM],TGI [4] [µM],TGI [5] [µM],TGI [6] [µM],TGI [7] [µM],TGI [8] [µM],TGI [9] [µM],TGI [10] [µM],TGI [11] [µM],TGI [12] [µM],TGI [13] [µM],GI50 [1] [µM],GI50 [2] [µM],GI50 [3] [µM],GI50 [4] [µM],GI50 [5] [µM],GI50 [6] [µM],GI50 [9] [µM]
Cc1nc(OCc2ccccc2)c2ncn(CCO)c2n1,> 100,> 100,> 100,> 100,> 100,> 100,> 100,> 100,> 100,> 100,> 100,,,,,,,,,
COC1OC2COC1(OCc1ccccc1)C1OC(C)(C)OC21 (stereo unspecified),> 100,> 100,> 100,> 100,> 100,> 100,> 100,> 100,> 100,> 100,,> 100,> 100,,,,,,,
CC(C)(C)C1=C(Br)C(F)(C(C)(C)C)OP1(=O)c1ccccc1 (stereo unspecified),36.3,40,,37,53.8,32.3,28.5,,30,31.3,34.2,30.9,30,,,,,,,
CC1C(C)(C)C23CC12C1(OCCO1)C3Br (stereo unspecified),> 100,> 100,> 100,> 100,> 100,> 100,> 100,> 100,> 100,> 100,,> 100,> 100,,,,,,,
CCCn1cc2c(=O)[nH]c(SC)nc2n1,> 100,> 100,> 100,> 100,,> 100,> 100,,> 100,> 100,> 100,> 100,,,,,,,,
Cc1ccc2c(c1)nc1n2C(c2c(F)cccc2F)SC1 (stereo unspecified),> 100,,87.4,> 100,92.7,> 100,> 100,,> 100,> 100,,> 100,> 100,,,,,,,
C=C1C2CCC3C4(C)CCCC(C)(C(=O)O)C4CCC3(C2)C1OC(=O)/C(C)=C/C (stereo unspecified),> 100,60.4,,44.2,> 100,> 100,45.1,> 100,> 100,> 100,54.6,> 100,> 100,,,,,,,
FC1(F)ON2CCc3ccccc3C2[C@H]1c1ccccc1 (stereo partly specified),> 100,> 100,> 100,> 100,> 100,> 100,> 100,,> 100,> 100,,70.8,> 100,> 100,> 100,> 100,> 100,45.9,> 100,> 100
O=C(OC1=CCN(Br)C1=O)C1=C(O)C(=O)N(Br)C1,> 100,> 100,87.7,69.7,> 100,65.2,> 100,46,> 100,58.1,,61.3,51.7,,,,,,,
Nc1nc(Cl)cc(NCC2(CCO)CCC2)n1,> 100,,> 100,> 10,> 100,> 100,,> 100,> 100,> 100,> 100,> 10,> 100,,,,,,,
COC(=O)c1cc2c(c(C(=O)OC)c1)CCC2,> 100,> 100,> 100,> 100,> 100,> 100,> 100,,> 100,> 100,> 100,> 100,> 100,,,,,,,
C=C(/C=C/C=C(\C)CCC=C(C)C)[C@@H]1CC[C@]2([C@H](CCCO)/C(=C(/C)C=O)CC[C@]2(C)O)[C@@H]1O,38.2,,29.3,44,,40.7,48.2,,> 100,28.5,,99.4,,,,,,,,
Cn1c(-c2ccco2)ccc1-c1ccc(C=O)o1,> 100,> 100,74.6,> 100,,> 100,> 100,> 100,> 100,> 100,> 100,> 100,> 100,,,,,,,
COc1ccc(/C=C2\N=C(N3CCCC(CO)C3)NC2=O)cc1 (stereo unspecified),> 100,,> 100,> 100,> 100,> 100,> 100,> 100,> 100,> 100,> 100,> 100,> 100,,,,,,,
CCOC(=O)C12CCC(=O)N1N(C)c1ncccc1N2 (stereo unspecified),> 100,> 100,> 100,> 100,,> 100,> 100,> 100,> 100,> 100,,> 100,> 100,,,,,,,
COc1ccc(C(=O)/C=C/c2ccc(OCCCCCCCCCCOc3ccc(/C=C/C(=O)c4ccc(OC)cc4)cc3)cc2)cc1,> 100,,> 100,> 100,> 100,> 100,> 100,,> 100,> 100,,> 100,> 100,,,,,,,
COc1ccc2[nH]cc(CCNC(=O)[C@H](Cc3ccc(O)cc3)NC(=O)[C@@H](NCC(F)(F)F)C(C)C)c2c1,> 100,,> 100,> 100,91.1,> 100,> 100,> 100,> 100,> 100,> 100,,> 100,,,,,,,
O=[N+]([O-])c1ccc(-c2csc(N=Nc3c(O)[nH]c4ccccc34)n2)cc1,81.3,,> 100,> 100,,> 100,36.4,42.8,> 100,> 100,74.5,> 100,> 100,,,,,,,
OC1NC2Nc3ccccc3NC2NC1O (stereo unspecified),> 100,> 100,> 100,> 100,> 100,> 100,> 100,,> 100,> 100,> 100,> 100,> 100,,,,,,,
O=C1CCC(C(=O)N2CSCC2C(=O)O)N1 (stereo unspecified) ([pGlu]-[Thz]-OH; configuration not given here),> 100,> 100,> 100,> 100,> 100,> 100,> 100,> 100,> 100,,,> 100,> 100,,,,,,,

Compound,TGI [1] [µM],TGI [2] [µM],TGI [3] [µM],TGI [4] [µM],TGI [5] [µM],TGI [6] [µM],TGI [7] [µM],TGI [8] [µM],TGI [9] [µM],TGI [10] [µM],TGI [11] [µM],TGI [12] [µM],TGI [13] [µM],GI50 [1] [µM],GI50 [2] [µM],GI50 [3] [µM],GI50 [4] [µM],GI50 [5] [µM],GI50 [6] [µM],GI50 [9] [µM]
CCOC(=O)C(NC(=O)c1cccc(Cl)c1)(Nc1ccc(S(=O)(=O)Nc2cc(C)on2)cc1)C(F)(F)F (stereo unspecified),> 100,> 100,> 100,33.4,> 100,> 100,> 100,,> 100,> 100,> 100,> 100,> 100,,,,,,,
Cc1cc(N(CCC#N)CCC#N)ccc1/C(N=Nc1ccc([N+](=O)[O-])cc1)=N\NC(=O)c1cc(Cl)ccc1O,> 100,94.5,72.3,> 100,91.7,,> 100,> 100,> 100,> 100,,> 100,> 100,,,,,,,
Cc1nc2c(c(N3CCN(C)CC3)n1)Cc1ccccc1-2,> 100,,,> 100,> 100,> 100,> 100,> 100,> 100,> 100,> 100,> 100,,,,,,,,
S=P1(Sc2ccccc2)Oc2ccc3ccccc3c2-c2c(ccc3ccccc23)O1,> 100,> 100,> 100,> 100,,> 100,,,,> 100,> 100,> 100,> 100,,,,,,,
CCn1c(SCC(=O)N/N=C2\SCC(=O)N2c2ccc(C)cc2)nc2ccccc2c1=O,43.3,38.4,> 100,36.2,41.7,> 100,> 100,,34.2,46.1,,36.6,50.7,,,,,,,
COC(=O)C1=C(C)NC(=O)N2[C@@H](CCOCc3ccccc3)CC[C@@H]12,> 50,> 50,> 50,> 50,> 50,> 50,> 50,,> 50,> 50,> 50,> 50,> 50,,,,,,,
O=C(Cc1ccc2ccccc2c1)NCc1ccc(C(=O)NCCc2ccccc2)cc1,> 100,> 100,,> 100,> 100,> 100,> 100,> 100,> 100,> 100,> 100,> 100,> 100,,,,,,,
c1ccc2c3c(ccc2c1)-c1[nH]ncc1CCO3,> 100,99.7,77.5,> 86.1,,> 100,,,,51.8,57.7,> 74.9,> 91.9,,,,,,,
Fc1cc(C2=Nn3c(COc4ccccc4Cl)nnc3S/C2=C\c2ccc(Cl)cc2)c(Cl)cc1Cl,,29.7,> 100,> 100,36.4,39.9,17,,39.1,80.2,20.2,,> 100,,,,,,,
CCOP(=O)(CC(=O)C1CC1)OCC,> 100,,> 100,> 100,> 100,> 100,> 100,> 100,> 100,> 100,,> 100,> 100,,,,,,,
COC(=O)C1CCC(=O)N1C(c1ccc(OC)cc1)c1cc(OC)c(OC)c(OC)c1 (stereo unspecified),> 100,,> 61.1,0.465,,> 100,21.6,> 100,> 100,> 100,> 100,> 94.7,> 100,,,,,,,
O=[N+]([O-])c1ncc(N(CCO)CCO)s1,,> 100,> 100,> 100,> 100,> 100,> 100,80.6,> 100,> 100,,> 100,> 100,,,,,,,
CC(C)(C)OC(=O)NCC(CNC(=O)OC(C)(C)C)C(N)=O,> 100,> 100,> 100,> 100,> 100,> 100,> 100,> 100,> 100,> 100,> 100,,> 100,,,,,,,
CC(NC1=NCCO1)c1ccccc1Cl (stereo unspecified),> 100,> 100,> 100,> 100,> 100,> 100,> 100,,> 100,> 100,73,> 100,> 100,,,,,,,
COc1ccc2c(c1)c1c3c(ccc4ncn2c43)N(CCO)CCN=1,2.22,0.382,0.656,0.831,0.605,3.64,0.772,,0.543,1.09,5.2,1.19,0.476,,,,,,,
CC(C)(C)c1ccc2c(c1)OP1(Oc3c(Cl)cc(Cl)c4cccnc34)(O2)Oc2ccc(C(C)(C)C)cc2O1,34.6,28.7,18.7,32.1,,23.5,,,,15.9,,32.2,20,,,,,,,
COc1ccc(S(=O)(=O)Nc2ccc(-c3csc(N4C(=O)/C(=C/c5ccccc5[N+](=O)[O-])N=C4c4ccccc4)n3)cc2)cc1Cl,> 100,59.8,> 100,> 100,> 100,> 100,> 100,,> 100,> 100,87.5,> 100,> 100,,,,,,,
O=S(=O)(O)c1ccc(N=Nc2ccccc2)cc1,> 100,> 100,> 100,> 100,> 100,> 100,> 100,> 100,> 100,> 100,> 100,,> 100,,,,,,,
O=P1(c2ccccc2)C(c2ccccc2)CCC1c1ccccc1 (stereo unspecified),> 100,,> 100,> 100,> 100,> 100,> 100,85.5,,,> 100,> 100,> 100,,,,,,,
